These results are taken from ChEMBL document CHEMBL3046862, “Structure-activity relationship of aliphatic compounds for nematicidal activity against pine wood nematode (Bursaphelenchus xylophilus)” (2010).

Type in all cases: functional
The test system of experiment [1] is Bursaphelenchus xylophilus. As to the kind of experiment: Nematicidal activity against Bursaphelenchus xylophilus at 0.5 mg/ml measured after 48 hr under microscope.
Experiment [2] deals with Bursaphelenchus xylophilus. The experiment in a line: microbe, parasite or virus in culture. The following applies: 48 h, at 0.125 mg/mL.
Description: Nematicidal activity against Bursaphelenchus xylophilus assessed as mortality at 0.125 mg/ml measured after 48 hr under microscope
Experiment [3] deals with Bursaphelenchus xylophilus. The experiment in a line: Nematicidal activity against Bursaphelenchus xylophilus assessed as mortality at 0.25 mg/ml measured after 48 hr under microscope.
The subject of experiment [4] is Bursaphelenchus xylophilus. The experiment in a line: Nematicidal activity against Bursaphelenchus xylophilus assessed as mortality at 0.0625 mg/ml measured after 48 hr under microscope.

For orientation: mortality means the percentage killed.

In experiment [1], `CCCCCCCCCCC` came in with a mortality at 500 µg/mL of 1.6%.
For `CCCCCCCCCCCCCC`, the mortality at 500 µg/mL in experiment [1] is 1.7%.
Still for that read-out and setting: for `CCCCCCCCCCCCC` the value was 3.3%; for `CCCCCCCCCC/C=C/C=O`, 4.9%.
Take `CCCCCCC/C=C/CO`: the mortality at 125 µg/mL in experiment [2] came to 100%. For the same compound, the mortality at 250 µg/mL in experiment [3] came to 100%. Further, in experiment [4], the mortality at 62.5 µg/mL came to 43.3%. In experiment [1], the mortality at 500 µg/mL stood at 100%.
Turning to `CCCCCCCCC/C=C/C=O`, in experiment [1], the mortality at 500 µg/mL is 5.1%.
The same measure, in the same setting: the same measure for `CCCCCCCCCCC/C=C/C=O`: 3.3%.
The same measure, in the same setting: the same measure for `CCCCCCCCCCCCCCOC(C)=O`: 0.9%.
The same measure, in the same setting: for `CCC/C=C/CO` the value was 13%; for `CCCC/C=C/CO`, 50.9%.
Consider `CCCCC/C=C/CO`, for which the mortality at 250 µg/mL in experiment [3] was 31.5%. In experiment [1], this compound returned a mortality at 500 µg/mL of 97.4%.
Consider `CCCCCC/C=C/CO`, for which the mortality at 125 µg/mL in experiment [2] worked out at 45.5%. Besides, in experiment [3], the mortality at 250 µg/mL is 100%. The mortality at 500 µg/mL in experiment [1] is 100%.
As for `CCCCCCCC/C=C/CO`, the mortality at 125 µg/mL in experiment [2] is 100%. In addition, the mortality at 250 µg/mL in experiment [3] is 100%. In addition, the mortality at 62.5 µg/mL in experiment [4] was found to be 45.1%. In experiment [1], this compound returned a mortality at 500 µg/mL of 100%.
The compound `CCCCCCCCC/C=C/CO` displayed a mortality at 500 µg/mL in experiment [1] of 4.7%.
With `CCCCCCCCCC/C=C/CO`, the mortality at 500 µg/mL in experiment [1] is 3.5%.
Turning to `CCCCCCCCCCC/C=C/CO`, the mortality at 500 µg/mL in experiment [1] amounted to 2.6%.
The compound `CCC/C=C/C=O` gave a mortality at 125 µg/mL in experiment [2] of 22%. Moreover, the mortality at 250 µg/mL in experiment [3] came out at 83.1%. Besides, the mortality at 500 µg/mL in experiment [1] worked out at 95.6%.
`CCCCCCCCCCCCCO` came in with a mortality at 500 µg/mL in experiment [1] of 4.4%.
As for `CCCCC/C=C/C=O`, the mortality at 125 µg/mL in experiment [2] amounted to 90.6%. Also, in experiment [3], the mortality at 250 µg/mL was found to be 99%. Also, the mortality at 62.5 µg/mL in experiment [4] was determined as 22.6%. Further, in experiment [1], the mortality at 500 µg/mL was 100%.
In experiment [1], `CCCCCCCC/C=C/C=O` came in with a mortality at 500 µg/mL of 24.8%.
As for `CCCC/C=C/C=O`, the mortality at 125 µg/mL in experiment [2] is 76.3%. In addition, in experiment [3], the mortality at 250 µg/mL was 97.8%. Further, the mortality at 62.5 µg/mL in experiment [4] amounted to 18%. The compound further yielded a mortality at 500 µg/mL in experiment [1] of 100%.
As to `CCCCCCCO` [1-HEPTANOL], the mortality at 500 µg/mL in experiment [1] turned out to be 29.8%.
Same read-out and setting: for `CCCCCCO` [1-HEXANOL] the value was 12.6%.
In experiment [2], `CCCCCC/C=C/C=O` [2-NONENAL] gave a mortality at 125 µg/mL of 99.8%. The mortality at 250 µg/mL in experiment [3] turned out to be 100%. For the same compound, the mortality at 62.5 µg/mL in experiment [4] amounted to 47.4%. Also, the mortality at 500 µg/mL in experiment [1] stood at 100%.
As to `CCCCCCCCCC=O` [DECANAL], the mortality at 500 µg/mL in experiment [1] is 7.9%.
Same read-out and setting: the same measure for `CCCCCCCCCC` [DECANE]: 1.6%.
Compound `CCCCCCCCCC(=O)O` [DECANOIC ACID] registered a mortality at 125 µg/mL in experiment [2] of 100%. In experiment [3], the mortality at 250 µg/mL amounted to 100%. For the same compound, the mortality at 62.5 µg/mL in experiment [4] came out at 59.8%. In experiment [1], the mortality at 500 µg/mL turned out to be 100%.
The compound `CCCCCCCCCCO` [DECANOL] showed a mortality at 125 µg/mL in experiment [2] of 100%. Besides, in experiment [3], the mortality at 250 µg/mL came to 100%. Besides, the mortality at 62.5 µg/mL in experiment [4] was determined as 15.6%. In experiment [1], this compound showed a mortality at 500 µg/mL of 100%.
In turn, `CCCCCCCCCCOC(C)=O` [DECYLACETATE] showed a mortality at 500 µg/mL in experiment [1] of 1.6%.
As for `CCCCCCCCCCCC=O` [DODECANAL], in experiment [1], the mortality at 500 µg/mL was found to be 6.6%.
Same read-out and setting: for `CCCCCCCCCCCC` [DODECANE] the value was 1.6%; for `CCCCCCCCCCCC(=O)O` [DODECANOATE], 1.9%; for `CCCCCCCCCCCCO` [DODECANOL], 3.1%.
Compound `CCCCCCCCCCCCOC(C)=O` [DODECYLACETATE] registered a mortality at 500 µg/mL in experiment [1] of 1.7%.
Same read-out and setting: for `CCCCCCC=O` [HEPTANAL] the value was 6%; for `CCCCCCC` [HEPTANE], 2.6%.
Turning to `CCCCCCC(=O)O` [HEPTANOATE], in experiment [3], the mortality at 250 µg/mL stood at 53.7%. The mortality at 500 µg/mL in experiment [1] came out at 100%.
In experiment [1], `CCCCCCCOC(C)=O` [HEPTYLACETATE] yielded a mortality at 500 µg/mL of 7.4%.
For the compound `CCCCCC=O` [HEXANAL], in experiment [1], the mortality at 500 µg/mL turned out to be 4.2%.
Still for that read-out and setting: the same measure for `CCCCCC` [HEXANE]: 4.4%; for `CCCCCC(=O)O` [HEXANOATE]: 31.3%; for `CCCCCCOC(C)=O` [HEXYL ACETATE]: 1.5%.
Take `CCCCCCCCCCCCCC(=O)O` [MYRISTIC ACID]: in experiment [1], the mortality at 500 µg/mL turned out to be 3.8%.
`CCCCCCCCCCCCCCO` [MYRISTYL ALCOHOL] gave a mortality at 500 µg/mL in experiment [1] of 4%.
In experiment [1], `CCCCCCCCC=O` [NONANAL] gave a mortality at 500 µg/mL of 14.2%.
In experiment [1], `CCCCCCCCC` [NONANE] came in with a mortality at 500 µg/mL of 2.3%.
Regarding `CCCCCCCCC(=O)O` [NONANOATE], the mortality at 125 µg/mL in experiment [2] is 100%. For the same compound, in experiment [3], the mortality at 250 µg/mL came to 100%. For the same compound, the mortality at 62.5 µg/mL in experiment [4] came to 40.1%. Further, in experiment [1], the mortality at 500 µg/mL is 100%.
In experiment [2], `CCCCCCCCCO` [NONANOL] showed a mortality at 125 µg/mL of 81%. In addition, the mortality at 250 µg/mL in experiment [3] is 100%. For the same compound, the mortality at 62.5 µg/mL in experiment [4] is 4.7%. The same compound came in with a mortality at 500 µg/mL in experiment [1] of 100%.
`CCCCCCCCCOC(C)=O` [NONYLACETATE] showed a mortality at 500 µg/mL in experiment [1] of 3.1%.
As to `CCCCCCCC=O` [OCTANAL], the mortality at 500 µg/mL in experiment [1] came out at 13.6%.
The same measure, in the same setting: the same measure for `CCCCCCCC` [OCTANE]: 3.8%.
As to `CCCCCCCC(=O)O` [OCTANOIC ACID], the mortality at 125 µg/mL in experiment [2] was 50.1%. For the same compound, the mortality at 250 µg/mL in experiment [3] was 98.9%. This compound displayed a mortality at 500 µg/mL in experiment [1] of 100%.
Regarding `CCCCCCCCO` [OCTANOL], the mortality at 250 µg/mL in experiment [3] was 17%. The compound also yielded a mortality at 500 µg/mL in experiment [1] of 100%.
On to `CCCCCCCCOC(C)=O` [OCTYL ACETATE], for which the mortality at 500 µg/mL in experiment [1] is 4.9%.
Same read-out and setting: the same measure for `CCCCCCCCCCCCCC=O` [TETRADECANAL]: 3.5%; for `CCCCCCCCCCCCC=O` [TRIDECANAL]: 7.6%; for `CCCCCCCCCCCCC(=O)O` [TRIDECANOATE]: 4.4%.
Still for that read-out and setting: the same measure for `CCCCCCCCCCCCCOC(C)=O` [TRIDECYLACETATE]: 1.4%.
Consider `CCCCCCCCCCC=O` [UNDECANAL], for which the mortality at 500 µg/mL in experiment [1] was determined as 7.4%.
As to `CCCCCCCCCCC(=O)O` [UNDECANOATE], the mortality at 125 µg/mL in experiment [2] came out at 51.3%. Besides, the mortality at 250 µg/mL in experiment [3] was 96%. For the same compound, the mortality at 500 µg/mL in experiment [1] is 98.5%.
Take `CCCCCCCCCCCO` [UNDECANOL]: in experiment [2], the mortality at 125 µg/mL was found to be 99.4%. Also, the mortality at 250 µg/mL in experiment [3] worked out at 100%. Besides, the mortality at 62.5 µg/mL in experiment [4] came to 98.3%. The mortality at 500 µg/mL in experiment [1] was 100%.
In turn, `CCCCCCCCCCCOC(C)=O` [UNDECYLACETATE] came in with a mortality at 500 µg/mL in experiment [1] of 2.3%.
